The text below walks through data of US20030175254A1, “Method of obtaining purified enterochromaffin cells and methods of using same” (priority 2001, published 2003).

This assay concerns Intestinal EC Cells. Description: Serotonin release from cultured rat intestinal (ileal) EC cell fractions, serotonin EIA. The assay is classed as cell-based. The settings on record: 60 minutes, 100,000 cells cultured overnight. The protocol: Male Sprague-Dawley rats (n=5 per preparation) were euthanized and the ileum was completely removed and divided into 2-3 pieces. Following end-ligation, these pieces of intestine were everted and filled with an enzyme mix of Pronase E (0.7 mg/mL), and collagenase (0.25 mg/ml). Cells were separated from the muscularis by alternative switching between a calcium containing Respiration medium and a 2 mM EDTA-containing digestive medium (with shaking). A total of 1-2×10^8 cells were obtained from each preparation. Five fractions of cells (F1-F5) were separated by counterflow-elutriation using flow rates of 25 ml/min at 2,500 rpm. Cells (100,000) were cultured overnight in Dulbecco's modified Eagles medium (DMEM)-F12 medium supplemented with 2 mg/ml bovine serum albumin, 5% fetal bovine serum, 5 mg/l gentamicin, 5 mg/l insulin, 5 mg/l transferring, 5 μg/l sodium selenite, and 1 nM hydrocortisone). After removal of the medium, fresh culture medium containing agonists (PACAP, galanin, forskolin, each at 10 nM) was added to the cells for 60 minutes. This medium was removed and the serotonin measured using an serotonin EIA kit and expressed as ng serotonin/100,000 cells/60 min.

Turning to `C=C[C@@]1(C)CC(=O)[C@]2(O)[C@@]3(C)[C@@H](O)CCC(C)(C)[C@@H]3[C@H](O)[C@H](OC(C)=O)[C@@]2(C)O1` [Forskolin], where the note is “agonist 10 nM, positive control, p<0.05”, the “serotonin release, fold versus controls” value is listed as 2.1±0.14 fold.

In the case of “pituitary adenylate cyclase stimulating peptide [PACAP]”, the “serotonin release versus controls” value (10^-8 M, negatively regulated serotonin release) is reported as 0.88±0.06.
